Measurements taken from publication PMC11220795 (Molecular Pharmaceutics, 2024).

Experiment: Drug solubility in medium-chain triglycerides (MCT, Miglyol 812 N); SORESOS 96-well assay, miniaturized shake-flask or literature
Conditions: decadic logarithm of molar solubility in MCTs (Miglyol 812 N), 24 h at room temperature; no literature source given
Protocol: The excipient complies with the quality specifications of the European Pharmacopoeia. The solvents used for the ultra-performance liquid chromatography (UPLC) quantification were of UPLC grade.
(b) employing a miniaturized version of the shake-flask method in 2 mL glass vials,[33] or (c) collecting data from the literature.[12],[34] Each of the employed assays involved residual solid-state screenings by powder X-ray diffraction to identify potential solid-state changes during solubility screenings.

SMILES | log10 S [M]
CC(C)/N=c1\cc2n(-c3ccc(Cl)cc3)c3ccccc3nc-2cc1Nc1ccc(Cl)cc1 [clofazimine] | -1.65
CC[C@@H]([C@H](C)O)n1ncn(-c2ccc(N3CCN(c4ccc(OC[C@@H]5CO[C@@](Cn6cncn6)(c6ccc(F)cc6F)C5)cc4)CC3)cc2)c1=O [posaconazole] | -3.55
Cn1c(COc2cc(Cl)c(C#N)cc2C(C)(C)C)n[nH]c1=O [RO7189752] | -2.76
Cc1cc(C#N)cc(C)c1Oc1nc(Nc2ccc(C#N)cc2)nc(N)c1Br [etravirine] | -3.28
CO[C@@H](Cc1ccc(OCCc2nc(-c3ccccc3)oc2C)c2ccsc12)C(=O)O [aleglitazar] | -2.77
Cc1cc(N(C)Cc2sc(-c3ccc(C(F)(F)F)cc3)nc2C)ccc1OCC(=O)O [RO4632615] | -2.28
OCCOc1ccc(/C(=C(/CCCl)c2ccccc2)c2ccccc2)cc1 [ospemifene] | -1.47
Cc1onc(-c2ccccn2)c1COc1ccc(C(=O)N2CCOCC2)cn1 [RO5234906] | -1.90
Cn1nnnc1Cn1nnc2c(N3CC[C@@H](O)C3)nc(C(C)(C)C)nc21 [RO6868847] | -1.56
COc1ccc(N2CCOCC2)c2sc(NC(=O)c3ccnc(CN4CCCC4)c3)nc12 [RO0728617] | -3.00
O=C(N[C@@H]1CCCC[C@H]1O)c1cnc(OCC(F)(F)F)c(-c2ccc(Cl)c(Cl)c2)c1 [RO5267683] | -2.34
Cc1onc(-c2ccc(F)cn2)c1COc1ccc(C(=O)N2CCS(=O)(=O)CC2)cn1 [RO5292065] | -2.89
O=C(Nc1ccc(Cl)cn1)[C@@H]1CN(CC(F)F)C[C@H]1C(=O)Nc1ccc(-n2ccccc2=O)cc1F [RO4934067] | -2.53
C#Cc1cccc(Nc2ncnc3cc(OCCOC)c(OCCOC)cc23)c1 [erlotinib] | -2.70
Cc1cc(-n2c(=O)[nH]c(=O)n(C)c2=O)ccc1Oc1ccc(SC(F)(F)F)cc1 [toltrazuril] | -2.35
Clc1ccc(COC(Cn2ccnc2)c2ccc(Cl)cc2Cl)c(Cl)c1 (stereo not shown) [miconazole] | -0.86
CN1CCN(c2ccc(C(=O)Nc3n[nH]c4ccc(Cc5cc(F)cc(F)c5)cc34)c(NC3CCOCC3)c2)CC1 [RO7102122] | -2.69
Cc1cc(-c2ccc(C(F)(F)F)cc2)cc(-c2cccc(-c3cccc(S(N)(=O)=O)c3)n2)n1 [RO5132673] | -2.96
Cc1cc(OCc2ccc(-c3ccc(OC(F)(F)F)cc3)nc2)ccc1OC(C)(C)C(=O)O [RO4883572] | -2.52
C[C@@H](O[C@H]1OCCN(Cc2n[nH]c(=O)[nH]2)[C@H]1c1ccc(F)cc1)c1cc(C(F)(F)F)cc(C(F)(F)F)c1 [aprepitant] | -3.40
Cn1c(=O)c2[nH]cnc2n(C)c1=O [theophylline] | -2.92
Cc1cc(-c2cccc(C3=Nc4cc(C)c(C(F)(F)F)cc4NC(=O)C3)c2)ccn1 [RO4432717] | -2.89

SMILES | log10 S [M]
CCOC(=O)C1=C(C)NC(C)=C(C(=O)OCC)C1c1ccccc1/C=C/C(=O)OC(C)(C)C [lacidipine] | -2.00
O=C(O)COC(=O)Cc1ccccc1Nc1c(Cl)cccc1Cl [aceclofenac] | -1.84
COc1ccc(N2CCOCC2)c2sc(NC(=O)N3CCC(C)(O)CC3)nc12 [RO4494351] | -3.40
COc1ccc(N2CCOCC2)c2sc(NC(=O)N3CCC(CO)CC3)nc12 [RO0725612] | -4.65
COc1ccc(CCN2CCC(Nc3nc4ccccc4n3Cc3ccc(F)cc3)CC2)cc1 [astemizole] | -2.37
COc1ccc(Cl)cc1S(=O)(=O)N1CCOc2c(C)cc(C(=O)Nc3ccc(CC(=O)O)cc3)cc21 [RO5114497] | -3.73
O=C1Nc2ccc(Cl)cc2[C@@](C#CC2CC2)(C(F)(F)F)O1 [efavirenz] | -0.22
COc1ccc(N2CCOCC2)c2sc(NC(=O)c3ccc(C(F)(F)F)cc3)nc12 [RO0720004] | -1.93
CCC1=C(C)CN(C(=O)NCCc2ccc(S(=O)(=O)NC(=O)N[C@H]3CC[C@H](C)CC3)cc2)C1=O [glimepiride] | -4.38
CC[C@H](C)C(=O)O[C@H]1C[C@@H](C)C=C2C=C[C@H](C)[C@H](CC[C@@H]3C[C@@H](O)CC(=O)O3)[C@H]21 [lovastatin] | -2.45
CC(C)(C)c1ccc(CN(CCc2cc(F)cc(C(F)(F)F)c2)C(=O)c2cc(C(F)(F)F)cc(Cl)c2F)cc1 [RO5072744] | 0.0355
CN(C(=O)C(C)(C)c1cc(C(F)(F)F)cc(C(F)(F)F)c1)c1cnc(N2CCOCC2)cc1-c1ccccc1Cl [RO0676789] | -1.07
COc1cc(C(=O)O)ccc1NC(=O)[C@@H]1N[C@@H](CC(C)(C)C)[C@](C#N)(c2ccc(Cl)cc2F)[C@H]1c1cccc(Cl)c1F [RO5503781] | -1.68
Cn1cc(-c2ccc(S(=O)(=O)[C@@H]3C[C@@H](C(=O)NC4(C#N)CC4)N(C(=O)C4(C(F)(F)F)CC4)C3)c(C(F)(F)F)c2)cn1 [RO5459072] | -3.13
Cc1cc(F)ccc1-c1cc(N2CCS(=O)(=O)CC2)ncc1N(C)C(=O)C(C)(C)c1cc(C(F)(F)F)cc(C(F)(F)F)c1 [RO0728351] | -2.03
O=C(O)c1ccccc1Nc1cccc(C(F)(F)F)c1 [flufenamic acid] | -0.68
COc1ccc(Cl)cc1S(=O)(=O)N1CCOc2ccc(C(=O)Nc3ccc(C(=O)O)cc3)cc21 [RO5014449] | -4.05
CN1C(=O)N(c2c(F)cc(C#Cc3ccccc3)cc2F)C(=O)C[C@]12CCCc1ncccc12 [RO7059466] | -2.38
CC(C)C(=O)Nc1ccc([N+](=O)[O-])c(C(F)(F)F)c1 [flutamide] | -0.97
COc1ccc(N2CCCCC2)c2sc(NC(=O)c3ccc(F)cc3)nc12 [RO0718883] | -1.84
CC(C)(Oc1ccc(Cl)cc1)C(=O)O [clofibric acid] | -0.63
CCCS(=O)(=O)Nc1ccc(F)c(C(=O)c2c[nH]c3ncc(-c4ccc(Cl)cc4)cc23)c1F [RO5185426] | -3.06

SMILES | log10 S [M]
CN(C)CCCN1c2ccccc2Sc2ccc(Cl)cc21 [chlorpromazine] | -0.17
CN(C(=O)c1ccc(C#Cc2cc(F)ccc2F)cn1)C(C)(C)C [RO6806127] | -1.29
CC1(C(=O)N2C[C@H](S(=O)(=O)c3ccc(OCC(F)(F)F)cc3C(F)(F)F)C[C@@H]2C(=O)NC2(C#N)CC2)CC1 [RO5444101] | -2.64
CC1(C)OC2(CCN(C3=NC(=O)C4(Cc5ccccc5C4)O3)CC2)c2cccnc21 [RO6953958] | -2.47
COc1ccc(C2CCOCC2)c2sc(NC(=O)N(C)C3CCC(O)CC3)nc12 (stereo not shown) [RO4518423] | -2.61
Cc1ccc(Nc2cncnc2)c(C(=O)Nc2ccn(C)n2)n1 [RO5012841] | -2.35
COc1ccc(N2CCOCC2)c2sc(NC(=O)N(C)[C@@H]3C[C@H]4CC[C@@H]3O4)nc12 [RO4651862] | -2.04
COc1ccc(N2CCOCC2)c2sc(NC(=O)N3CC[S+]([O-])CC3)nc12 [RO0712616] | -4.84
CC(C)C(=O)c1c(C(C)C)nn2ccccc12 [ibudilast] | 0.0143
N#Cc1cc(-c2ccc(F)c(F)c2)c2c(c1)cc1n2CCNC1=O [RO6889199] | -3.08
C[C@@H](c1ncncc1F)[C@](O)(Cn1cncn1)c1ccc(F)cc1F [voriconazole] | -1.45
Cc1c(Cl)cccc1Nc1ccccc1C(=O)O [tolfenamic acid] | -1.65
CCOC(=O)C1=C(COCCN)NC(C)=C(C(=O)OC)C1c1ccccc1Cl (stereo not shown) [amlodipine] | -1.45
CCO[C@H](Cc1ccc2c(ccn2Cc2nc(-c3ccccc3Cl)oc2C)c1)C(=O)O [RO4552952] | -1.66
Cc1onc(-c2ccc(F)cc2)c1COc1ccc(C(=O)N2CCS(=O)(=O)CC2)cn1 [RO5186582] | -2.53
CC(C)(C)c1ccc(CN(CCc2ccc(F)c(C(F)(F)F)c2)C(=O)c2c(F)c(Cl)cc3cc[nH]c23)cc1 [RO4920915] | -1.47
Cc1cc(C#Cc2cn(-c3ccc(F)cc3)c(C)n2)ccn1 [RO4582939] | -1.38
CC(C(=O)O)c1ccc2c(c1)[nH]c1ccc(Cl)cc12 (stereo not shown) [carprofen] | -1.29
Cc1cccc(C#Cc2cn(-c3cnn(C)c(=O)c3)c(C)n2)c1 [RO5372709] | -2.90
CCc1cc(CCN(Cc2ccc(C(C)(C)C)cc2)C(=O)c2cc(C(F)(F)F)cc(Cl)c2F)ccc1Cl [RO5132822] | -0.16
COc1cc(C(=O)Nc2nc3c(OC)ccc([C@H]4COCCO4)c3s2)ccn1 [RO4545823] | -2.38

Experiment: not given
Conditions: decadic logarithm of molar solubility in MCTs; ref Alsenz, J. and Kuentz, M., 2019; cited from earlier work

SMILES | log10 S [M]
COc1ccc2c(c1)c(CC(=O)O)c(C)n2C(=O)c1ccc(Cl)cc1 [indomethacin] | -2.01
CC(C)(C)NCC(O)COc1cccc2c1CC(O)C(O)C2 (stereo not shown) [nadolol] | -3.23
CC(C)Cc1ccc(C(C)C(=O)O)cc1 (stereo not shown) [ibuprofen] | -0.82
O=C1C(CC[S+]([O-])c2ccccc2)C(=O)N(c2ccccc2)N1c1ccccc1 (stereo not shown) [sulfinpyrazone] | -2.33
O=C1NC(=O)C(c2ccccc2)(c2ccccc2)N1 [phenytoin] | -3.00
CC(=O)OCC(=O)[C@@]1(O)CC[C@H]2[C@@H]3CCC4=CC(=O)CC[C@]4(C)[C@H]3[C@@H](O)C[C@@]21C [hydrocortisone acetate] | -3.54
CN1C(C(=O)Nc2ccccn2)=C(O)c2ccccc2S1(=O)=O [piroxicam] | -2.25

Same assay, conditions: decadic logarithm of molar solubility in MCTs; ref Alskär, L.C., Porter, C.J. and Bergström, C.A., 2016; cited from earlier work

SMILES | log10 S [M]
O=C(C1CCCCC1)N1CC(=O)N2CCc3ccccc3C2C1 (stereo not shown) [praziquantel] | -1.38
